Measurements: patent publication US11214803B2, “Modulators of YAP1 expression” (Ionis Pharmaceuticals, Inc., priority 2019, dated 2022)
pIC50: −log10 of the molar value. Strand notation (5' to 3'): a small letter for the sugar, then the base; units joined by * are phosphorothioate-linked, units joined directly phosphodiester-linked; [ ] holds rarer units or linkages, { } end groups; capitals alone tell only the bases. k = constrained ethyl (cEt); [5mC] = 5-methylcytosine; d = 2'-deoxy (DNA)

Test system: Yap1 mRNA
Test: Dose-dependent inhibition of human Yap1 in A-431 cells (Example 7, 10,000 cells per well, RTS36584)
Assay type: cell-based
Details: free uptake
In short: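 Yap1 mRNA was expressed as percent of untreated control after normalization to total RNA (RIBOGREEN), and IC50 was derived by log/linear linear regression. The read-out used primer-probe set RTS36584 roughly 48 hours after free-uptake dosing of oligonucleotides into A-431 cells (10,000 cells/well).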

[1] = Table 57, 15.6 nM, A-431 cells 10,000 cells per well, 48 hours
[2] = Table 57, 62.5 nM, A-431 cells 10,000 cells per well, 48 hours
[3] = Table 57, 4000.00 nM, A-431 cells 10,000 cells per well, 48 hours
[4] = Table 57, A-431 cells 10,000 cells per well
[5] = 15.6 nM, A-431 cells, 10,000 cells per well, approximately 48 hours
[6] = 62.5 nM, A-431 cells, 10,000 cells per well, approximately 48 hours
[7] = 4000.00 nM, A-431 cells, 10,000 cells per well, approximately 48 hours
[8] = A-431 cells, approximately 48 hours, linear regression on log/linear plot

Substance | Yap1 mRNA, % UTC [5] [% UTC] | Yap1 mRNA, % UTC [6] [% UTC] | Yap1 mRNA, % UTC [7] [% UTC] | pIC50 [8] | other results
958752 (kG*kA*kA*dT*dT*dT*dT*dT*dA*dG*dT*d[5mC]*d[5mC]*kA*kG*kT; antisense) [compound 958752] |  |  |  |  | Yap1 mRNA, % UTC (Table 58, 15.6 nM, A-431 cells 10,000 cells per well, 48 hours): 102 % UTC; Yap1 mRNA, % UTC (Table 58, 62.5 nM, A-431 cells 10,000 cells per well, 48 hours): 66 % UTC; Yap1 mRNA, % UTC (Table 58, 4000.00 nM, A-431 cells 10,000 cells per well, 48 hours): 9 % UTC; pIC50 (Table 58, A-431 cells 10,000 cells per well): 7.00
958541 (kG*kT*kA*dT*dT*d[5mC]*dT*dA*dT*d[5mC]*d[5mC]*dA*dG*kG*kG*kT; antisense) [compound 958541] |  |  |  |  | Yap1 mRNA, % UTC [1]: 81 % UTC; Yap1 mRNA, % UTC [2]: 51 % UTC; Yap1 mRNA, % UTC [3]: 9 % UTC; pIC50 [4]: 7.00
958535 (kG*kG*kG*dT*d[5mC]*dA*dA*dT*dT*dT*dT*d[5mC]*dA*kG*k[5mC]*kA; antisense) [compound 958535] | 98 | 64 | 19 | 6.70 | 
958555 (kG*k[5mC]*kT*dT*dA*dT*dA*dT*dT*dG*dA*dA*dG*kA*kG*kT; antisense) [compound 958555] | 99 | 73 | 13 | 6.70 | 
958625 (kT*kG*k[5mC]*dT*dG*dG*dG*dA*dT*dT*dG*dA*dT*kA*kT*kT; antisense) [compound 958625] | 86 | 59 | 17 | 7.00 | 
958580 (kA*kT*kA*dA*dT*d[5mC]*dT*dT*dA*dA*dT*d[5mC]*dT*kG*kT*kG; antisense) [compound 958580] | 95 | 59 | 9 | 7.00 | 
958451 (antisense k[5mC]*kA*k[5mC]*dG*dA*dT*d[5mC]*dT*dG*dA*dT*dG*d[5mC]*k[5mC]*k[5mC]*kG) [compound 958451] |  |  |  |  | Yap1 mRNA, % UTC [1]: 98 % UTC; Yap1 mRNA, % UTC [2]: 74 % UTC; Yap1 mRNA, % UTC [3]: 23 % UTC; pIC50 [4]: 6.70
958796 (kA*kT*kT*dA*dT*dA*dT*dG*dG*dT*dT*dG*d[5mC]*kT*kT*k[5mC]; antisense) [compound 958796] |  |  |  |  | Yap1 mRNA, % UTC (Table 56, 15.6 nM, A-431 cells 10,000 cells per well, 48 hours): 91 % UTC; Yap1 mRNA, % UTC (Table 56, 62.5 nM, A-431 cells 10,000 cells per well, 48 hours): 62 % UTC; Yap1 mRNA, % UTC (Table 56, 4000.00 nM, A-431 cells 10,000 cells per well, 48 hours): 15 % UTC; pIC50 (Table 56, A-431 cells 10,000 cells per well): 6.89
958505 (kG*kA*kT*dA*dA*dT*d[5mC]*dG*dA*dG*dA*dT*dT*kT*kA*kA; antisense) [compound 958505] | 81 | 72 | 21 | 6.70 | 
958473 (kG*kT*k[5mC]*dT*d[5mC]*d[5mC]*dT*dT*dA*dG*dA*dT*d[5mC]*k[5mC]*kT*kT; antisense) [compound 958473] |  |  |  |  | Yap1 mRNA, % UTC (Table 60, 15.6 nM, A-431 cells 10,000 cells per well, 48 hours): 85 % UTC; Yap1 mRNA, % UTC (Table 60, 62.5 nM, A-431 cells 10,000 cells per well, 48 hours): 60 % UTC; Yap1 mRNA, % UTC (Table 60, 4000.00 nM, A-431 cells 10,000 cells per well, 48 hours): 17 % UTC; pIC50 (Table 60, A-431 cells 10,000 cells per well): 7.00
958595 (k[5mC]*k[5mC]*kA*d[5mC]*dA*dT*d[5mC]*dA*dA*dG*dG*d[5mC]*dT*kA*kT*kG; antisense) [compound 958595] | 83 | 57 | 16 | 7.00 | 
958575 (kG*kG*k[5mC]*dT*dA*d[5mC]*dT*dG*dG*d[5mC]*dA*dA*dA*kT*kT*kA; antisense) [compound 958575] | 89 | 58 | 20 | 7.00 | 
958594 (k[5mC]*kT*k[5mC]*dT*dT*dA*dG*dG*dT*d[5mC]*dT*d[5mC]*d[5mC]*kT*kT*k[5mC]; antisense) [compound 958594] | 91 | 70 | 20 | 6.70 | 
958650 (kT*k[5mC]*kA*dA*dT*dT*dG*dA*dG*dT*d[5mC]*dT*dG*k[5mC]*kT*kA; antisense) [compound 958650] | 82 | 51 | 7 | 7.00 | 
